# Results published in patent publication US20140088144A1, “INHIBITING MICROBIAL INFECTIONS” (THE UNIVERSITY OF KANSAS, priority 2012, published 2014).
# Assays:
# VirF = VirF (Shigella flexneri, UniProt P0A2T1); test: In vivo dose-response, VirF-activated virB-lacZ fusion in E. coli; type: cell-based; design: expressed in transfected cells; host or cells: E. coli SME4382 (virB-lacZ, pHG165virF)
# Description: For dose-response studies, a virB-lacZ reporter strain was constructed that allowed IPTG (isopropyl-β-D-thiogalactopyranoside) induced expression of VirF from plasmid pHG165. To construct this virB-lacZ reporter strain, kMAD102 was isolated from strain AB97, used to infect strain ECL116, and single copy lysogens were identified. Plvir-mediated generalized transductions were then used to add malP::lacI^q and recA::cat to this strain, as described previously. The virF gene was amplified (Forward oligo, Reverse oligo), digested with EcoRI and PstI and then ligated into the same sites of plasmid pHG165. The resulting plasmid, pHG165virF was transformed into SME4259 to make SME4382 (FIG. 20, Top). A control strain, SME3359, which carries a single copy hts-lacZ reporter fusion in the chromosome and a plasmid pHG165lacI that expresses LacI protein (FIG. 20, Bottom), was constructed. Briefly, the hts-lacZ reporter fusion consists of a synthetic promoter that is repressed by Lad.
# In vivo dose-response assays were performed using a procedure described previously. […] Bacterial cultures were mixed with varying concentrations of SE-1 (2.2% DMSO, final), induced with 6.5 mM IPTG for 3 h at 37° C., lysed and β-galactosidase activity was measured. […] IC50 values were calculated and graphs were drawn using Prism (GraphPad, La Jolla, Calif.).
# LacI = target: T1, LacI (Escherichia coli, UniProt P03023); test: EMSA in vitro DNA binding by LacI; type: biochemical, E. coli; conditions: highest concentrations (dilutions starting at 650 μM)
# T1 construct: made in house; host or cells: E. coli
# T1 sequence (P03023 whole entry): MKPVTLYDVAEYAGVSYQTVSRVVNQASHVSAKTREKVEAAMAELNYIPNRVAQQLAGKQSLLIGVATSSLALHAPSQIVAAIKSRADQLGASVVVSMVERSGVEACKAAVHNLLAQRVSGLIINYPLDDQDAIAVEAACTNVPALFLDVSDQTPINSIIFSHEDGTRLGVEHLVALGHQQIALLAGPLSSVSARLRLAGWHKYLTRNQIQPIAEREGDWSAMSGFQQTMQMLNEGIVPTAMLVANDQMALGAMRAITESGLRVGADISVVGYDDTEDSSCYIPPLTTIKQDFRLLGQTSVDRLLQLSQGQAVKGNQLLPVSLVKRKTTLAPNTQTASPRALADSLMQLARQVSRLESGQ
# Description: All proteins for this study were expressed in E. coli. Untagged CRP was purified by Ni^2+-affinity chromatography as described. Lad protein was purified by ammonium sulfate precipitation and phosphocellulose column chromatography as described. RhaS-GB1^201b and GB1^b-RhaR were purified by Ni^2+-affinity chromatography. Briefly, plasmids derived from pET21 and expressing RhaS-GB1^201b and GB1^b-RhaR were transformed into competent cells of strains Acella™ (MoBiTec, Gottingen, Germany) or ArcticExpress(DE3) (Agilent Technologies, Santa Clara Calif.), respectively. The cells were grown in 1 liter TY plus ampicillin and rhamnose. Gentamycin was also added for GB1^b-RhaR. The cells were grown to OD600 of 0.5, transferred to a 15° C. shaker, 0.1 mM IPTG was added, and then incubated overnight. Cells were harvested by centrifugation and then resuspended in 30 mL of cold binding buffer (20 mM Tris, 500 mM NaCl, 5 mM imidazole, pH 7.9) plus L-rhamnose. […]
# IRD700- and DY682-labeled oligos were from Eurofins MWG Operon. […] EMSA gels were imaged using an Odyssey infrared imager (LI-COR, Lincoln, Nebr.), and quantified using the Odyssey software, version 3.0.30. […] Inhibition values were calculated and graphs were drawn as for in vivo dose-response experiments.
# Rns = Rns (Escherichia coli, UniProt P16114); test: % Inhibition at 82.5 μM, Rns; type: cell-based, Enterotoxigenic E. coli; conditions: 82.5 μM
# Rns, sequence (P16114 whole entry): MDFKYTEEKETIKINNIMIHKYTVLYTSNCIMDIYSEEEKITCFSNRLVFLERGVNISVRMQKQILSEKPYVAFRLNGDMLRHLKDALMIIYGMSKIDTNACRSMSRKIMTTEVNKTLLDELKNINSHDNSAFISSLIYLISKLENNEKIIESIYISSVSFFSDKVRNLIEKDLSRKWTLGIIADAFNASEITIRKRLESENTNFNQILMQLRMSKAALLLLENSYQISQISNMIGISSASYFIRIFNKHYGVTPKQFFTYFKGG
# VirF, sequence (P0A2T1 whole entry, the tested form may be a part): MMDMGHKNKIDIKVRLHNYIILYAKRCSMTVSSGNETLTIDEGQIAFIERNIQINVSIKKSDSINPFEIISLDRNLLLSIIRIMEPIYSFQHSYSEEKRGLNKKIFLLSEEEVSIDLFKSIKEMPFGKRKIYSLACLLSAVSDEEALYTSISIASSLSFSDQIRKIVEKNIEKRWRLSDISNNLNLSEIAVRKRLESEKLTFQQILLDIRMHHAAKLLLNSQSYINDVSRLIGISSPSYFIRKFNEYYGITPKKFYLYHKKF
compound,measurement,setting,value
"CCCCN1C=C(c2ccc3ccccc3n2)C(C[N+](=O)[O-])c2ccccc21 (stereo not shown) [Compound 1, 1-butyl-4-(nitromethyl)-3-quinolin-2-yl-4H-quinoline]",IC50,"VirF; IC50, virB-lacZ reporter fusion expression, E. coli strain with plasmid-expressed VirF",~8 µM
same,inhibition of in vivo activation by VirF,VirF; compared with full-length RhaS,"similar, if not greater, extent than full-length RhaS"
same,LacI DNA binding retained,LacI,approximately 70%
same,% Inhibition at 82.5 μM Rns,Rns,90%
